Where two headings read alike, the source gives them in different places.
Tests used:
[1] = biological target: Human α2δ-1 Subunit of Cav2.2 Calcium Channel (Homo sapiens, UniProt P54289); test: biochemical; type: binding
human μ-opioid receptor = human μ-opioid receptor (Homo sapiens, UniProt P35372); test: biochemical; type: binding
Sequence of human μ-opioid receptor (P35372 whole entry): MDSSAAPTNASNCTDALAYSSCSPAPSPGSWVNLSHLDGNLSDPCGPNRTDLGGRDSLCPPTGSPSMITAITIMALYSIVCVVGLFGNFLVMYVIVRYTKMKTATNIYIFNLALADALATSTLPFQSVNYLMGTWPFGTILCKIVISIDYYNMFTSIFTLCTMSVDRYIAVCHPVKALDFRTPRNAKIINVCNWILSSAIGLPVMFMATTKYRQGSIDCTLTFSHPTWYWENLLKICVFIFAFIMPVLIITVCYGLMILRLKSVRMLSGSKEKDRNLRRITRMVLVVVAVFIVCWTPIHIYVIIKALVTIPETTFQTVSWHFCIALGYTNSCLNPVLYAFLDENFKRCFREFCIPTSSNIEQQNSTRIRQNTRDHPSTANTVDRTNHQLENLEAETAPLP

Sequence of Human α2δ-1 Subunit of Cav2.2 Calcium Channel (P54289 25-1103): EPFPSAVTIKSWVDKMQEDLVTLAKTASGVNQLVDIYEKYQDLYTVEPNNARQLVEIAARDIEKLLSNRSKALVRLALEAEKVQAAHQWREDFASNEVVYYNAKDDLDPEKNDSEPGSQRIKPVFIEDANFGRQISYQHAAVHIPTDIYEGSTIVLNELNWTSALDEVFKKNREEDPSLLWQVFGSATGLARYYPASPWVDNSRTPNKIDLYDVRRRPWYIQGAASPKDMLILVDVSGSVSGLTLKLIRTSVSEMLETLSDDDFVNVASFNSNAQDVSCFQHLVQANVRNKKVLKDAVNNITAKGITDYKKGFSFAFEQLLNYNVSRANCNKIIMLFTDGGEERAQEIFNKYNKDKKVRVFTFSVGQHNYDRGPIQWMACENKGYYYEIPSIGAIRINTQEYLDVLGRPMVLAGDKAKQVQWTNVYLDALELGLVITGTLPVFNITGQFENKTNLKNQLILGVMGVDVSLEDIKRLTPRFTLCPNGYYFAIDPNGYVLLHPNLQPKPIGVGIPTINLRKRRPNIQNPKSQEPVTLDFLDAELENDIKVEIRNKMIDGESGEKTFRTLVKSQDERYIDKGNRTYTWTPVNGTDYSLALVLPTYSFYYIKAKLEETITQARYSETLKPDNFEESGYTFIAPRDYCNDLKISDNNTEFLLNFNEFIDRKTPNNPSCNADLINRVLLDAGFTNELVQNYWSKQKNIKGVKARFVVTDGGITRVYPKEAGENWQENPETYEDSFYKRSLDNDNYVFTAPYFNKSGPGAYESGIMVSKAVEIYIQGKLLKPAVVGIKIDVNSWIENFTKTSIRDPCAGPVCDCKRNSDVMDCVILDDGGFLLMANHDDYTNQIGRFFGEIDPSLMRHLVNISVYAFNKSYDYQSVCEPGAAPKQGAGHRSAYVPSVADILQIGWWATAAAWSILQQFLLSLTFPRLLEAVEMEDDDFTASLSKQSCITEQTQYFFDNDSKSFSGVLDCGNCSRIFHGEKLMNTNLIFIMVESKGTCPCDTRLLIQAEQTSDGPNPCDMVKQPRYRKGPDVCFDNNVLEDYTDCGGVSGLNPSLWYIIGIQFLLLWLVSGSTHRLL

| SMILES | Ki [1] | Ki (human μ-opioid receptor) | Ki ([1]; read-out: Ki (nM) alpha2delta Hum) | Ki (human μ-opioid receptor; read-out: MU Ki) |
| --- | --- | --- | --- | --- |
| CNCCC(OCc1cccc(N2CCc3ccccc3C2=O)c1)c1cccs1 (stereo not shown) [Example 32, 2-(3-((3-(Methylamino)-1-(thiophen-2-yl)propoxy)methyl)phenyl)-3,4-dihydroisoquinolin-1(2H)-one] | 500 to 3000 nM | 100 to 500 nM |  |  |
| CNCCC(OCc1cccc(N2CCNc3ccccc32)c1)c1ccccc1 (stereo not shown) [Example 47, 3-((3-(3,4-Dihydroquinoxalin-1(2H)-yl)benzyl)oxy)-N-methyl-3-phenylpropan-1-amine] |  |  | > 3000 nM | > 1000 nM |
